Experimental data: US20110177105A1, “Novel Selective Inhibitors of Ubiquitin Specific Protease 7, the Pharmaceutical Compositions Thereof and Their Therapeutic Applications” (priority 2010, published 2011)

Molecular target: T1, USP8 (Homo sapiens, UniProt P40818)
T1 construct: His tag (pFastBac-HT vector); made in house; host or cells: Sf9 or High Five insect cells, baculovirus
T1 sequence (P40818 1-1118): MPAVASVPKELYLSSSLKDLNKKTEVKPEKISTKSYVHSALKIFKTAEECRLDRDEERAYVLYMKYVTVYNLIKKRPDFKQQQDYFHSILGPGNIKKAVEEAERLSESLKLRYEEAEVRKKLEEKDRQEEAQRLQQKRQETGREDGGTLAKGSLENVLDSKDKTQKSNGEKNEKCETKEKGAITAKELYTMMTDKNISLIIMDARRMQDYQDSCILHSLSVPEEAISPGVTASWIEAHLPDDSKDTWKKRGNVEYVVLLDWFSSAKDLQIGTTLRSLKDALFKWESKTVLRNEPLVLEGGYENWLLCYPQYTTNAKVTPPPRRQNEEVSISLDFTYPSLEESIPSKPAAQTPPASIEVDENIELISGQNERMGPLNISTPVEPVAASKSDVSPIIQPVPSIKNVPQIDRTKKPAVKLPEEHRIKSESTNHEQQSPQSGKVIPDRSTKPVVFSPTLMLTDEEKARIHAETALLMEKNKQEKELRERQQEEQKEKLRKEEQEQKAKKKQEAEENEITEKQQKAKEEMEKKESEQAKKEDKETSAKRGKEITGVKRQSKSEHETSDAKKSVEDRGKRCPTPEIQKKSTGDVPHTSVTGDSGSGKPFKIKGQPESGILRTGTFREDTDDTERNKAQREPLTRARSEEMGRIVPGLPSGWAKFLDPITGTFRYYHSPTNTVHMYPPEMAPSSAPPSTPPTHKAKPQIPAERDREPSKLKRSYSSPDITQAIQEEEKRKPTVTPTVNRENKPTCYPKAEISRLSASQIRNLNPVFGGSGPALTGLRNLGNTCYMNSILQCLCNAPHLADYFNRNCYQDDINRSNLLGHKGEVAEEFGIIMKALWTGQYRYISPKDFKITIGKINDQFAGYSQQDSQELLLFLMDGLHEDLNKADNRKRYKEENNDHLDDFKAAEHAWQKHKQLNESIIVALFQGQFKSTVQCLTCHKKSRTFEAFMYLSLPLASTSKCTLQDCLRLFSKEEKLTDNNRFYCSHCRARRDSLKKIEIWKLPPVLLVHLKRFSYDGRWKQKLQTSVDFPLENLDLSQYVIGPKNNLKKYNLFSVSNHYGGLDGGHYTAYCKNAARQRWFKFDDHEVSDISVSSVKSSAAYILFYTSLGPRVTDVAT
Assay: USP8 activity assay (Ub-AMC)
Type: biochemical
Conditions: 300 nM Ub-AMC, 1.36 nM enzyme
From the text: The cDNA encoding USP8 was obtained by PCR amplification from placenta mRNA. USP8 cDNA was subcloned by PCR into a baculovirus expression vector (pFastBac-HT; Invitrogen). A cDNA encoding a mutated USP8 was generated by mutagenic PCR. The corresponding protein encodes a cysteine to alanine substitution at residue 786. The sequences were ascertained by sequencing of the entire open reading frame. Bacmids encoding USP8 were generated following DH10bac transposition. The corresponding bacmids were transfected into insect cells (Sf9). Viruses were recovered from culture supernatant and amplified twice. Insect cells (Sf9 or High Five; Invitrogen) were infected for 72 hours. Total cell lysates were harvested and lyzed in lysis buffer (Tris HCl 50 mM pH 7.6; 0.75% NP40; 500 mM NaCl; 10% glycerol; 1 mM DTT; 10 mM imidazole; Protease Inhibitor Cocktail; AEBSF 20 μg·ml^−1; Aprotinin 10 μg·ml^−1). Proteins were affinity purified on metal affinity resins (Talon Metal affinity resin; BD Biosciences). Bound materials were extensively washed in wash buffer (50 mM Sodium Phosphate pH 7.0; 300 mM NaCl; 10 mM imidazole; 0.5% Triton X-100; 10% glycerol) and eluted from the resin in 250 mM imidazole-containing wash buffer. Proteins were dialyzed in dialysis buffer (Tris HCl pH 7.6 20 mM; NaCl 200 mM; DTT 1 mM; EDTA 1 mM; 10% Glycerol). Proteins purifications were analyzed on 4-12% NuPAGE (Invitrogen).
USP8 was diluted in USP buffer (50 mM Tris HCl; 0.5 mM EDTA; 5 mM DTT; 0.01% Triton X-100; Bovine Serum Albumin 0.05 mg·ml^−1 pH 8.8). Compounds stocks (100 mM) were stored at −20° C. in DMSO. Compounds were tested at different concentrations: from […] to 91 nM.
Reactions were performed as duplicates in Black 384 well plates (small volume microplates; Greiner; 10 μl final reaction volume). The substrate concentration for USP8 was 300 nM Ub-AMC (Boston Biochem). The concentration of the enzyme (USP8) in specificity assays was 1.36 nM. The concentrations were determined in order to perform specificity assays under initial velocities at fixed substrate concentration. Compounds were pre-incubated with enzymes for 30 minutes at 25° C. Reactions were initiated by addition of substrate to the plates containing the enzymes (+/−compounds) diluted in assay buffer. Reactions were incubated for 60 minutes at 37° C. Reactions were stopped by adding acetic acid (100 mM final). Readings were performed on a Pherastar Fluorescent Reader (BMG). λ Emission 380 nm: λ Excitation=460 nm. Data (mean values+/−standard deviation) were analyzed as % of control (no compound) and plotted as percentage versus the Log of the compound concentration using GraphPad (Prism). Data were fitted to a sigmoidal model (variable slope).

Structure (SMILES) | IC50
O=C(c1ccc2c(Cl)c3c(nc2c1)CCCC3)N1CCC(N2CCCCC2)CC1 [Example 16, [1,4′]Bipiperidinyl-1′-yl-(9-chloro-5,6,7,8-tetrahydro-acridin-3-yl)-methanone] | > 200 µM
CC1CCCC(C)N1CCCNC(=O)c1ccc2c(Cl)c3c(nc2c1)CCCC3 (stereo not drawn) [Example 9, 9-Chloro-5,6,7,8-tetrahydro-acridine-3-carboxylic acid [3-(2,6-dimethyl-piperidin-1-yl)-propyl]-amide] | > 200 µM
O=C(c1ccc2c(Cl)c3c(nc2c1)CCCC3)N1CCCCCC1 [Example 12, Azepan-1-yl-(9-chloro-5,6,7,8-tetrahydro-acridin-3-yl)-methanone] | > 200 µM
CCN(CC)CCNC(=O)c1ccc2c(Cl)c3c(nc2c1)CCCC3 [Example 7, 9-Chloro-5,6,7,8-tetrahydro-acridine-3-carboxylic acid (2-diethylamino-ethyl)-amide] | > 200 µM
CN1CCN(CCCNC(=O)c2ccc3c(Cl)c4c(nc3c2)CCCC4)CC1 [Example 15, 9-Chloro-5,6,7,8-tetrahydro-acridine-3-carboxylic acid [3-(4-methyl-piperazin-1-yl)-propyl]-amide] | > 200 µM
Cc1cccc(CN2CCC(CNC(=O)c3ccc4c(Cl)c5c(nc4c3)CCCC5)CC2)c1 [Example 1, 9-Chloro-5,6,7,8-tetrahydro-acridine-3-carboxylic acid [1-(3-methyl-benzyl)-piperidin-4-ylmethyl]-amide] | > 200 µM
CCCN1CCN(CCCNC(=O)c2ccc3c(Cl)c4c(nc3c2)CCCC4)CC1 [Example 13, 9-Chloro-5,6,7,8-tetrahydro-acridine-3-carboxylic acid [3-(4-propyl-piperazin-1-yl)-propyl]-amide] | > 200 µM

Now from value to molecule:

IC50 | Structure (SMILES)
> 200 µM | CCN(CCCNC(=O)c1ccc2c(Cl)c3c(nc2c1)CCCC3)Cc1ccccc1 [Example 5, 9-Chloro-5,6,7,8-tetrahydro-acridine-3-carboxylic acid [3-(benzyl-ethyl-amino)-propyl]-amide]
> 200 µM | CCCN(CCC)CCCNC(=O)c1ccc2c(Cl)c3c(nc2c1)CCCC3 [Example 6, 9-Chloro-5,6,7,8-tetrahydro-acridine-3-carboxylic acid (3-dipropylamino-propyl)-amide]
> 200 µM | O=C(NCCCN1CCCC1)c1ccc2c(Cl)c3c(nc2c1)CCCC3 [Example 8, 9-Chloro-5,6,7,8-tetrahydro-acridine-3-carboxylic acid (3-pyrrolidin-1-yl-propyl)-amide]
> 200 µM | CCN(CC)CCCNC(=O)c1ccc2c(Cl)c3c(nc2c1)CCCC3 [Example 10, 9-Chloro-5,6,7,8-tetrahydro-acridine-3-carboxylic acid (3-diethylamino-propyl)-amide]
> 200 µM | CCCCN(CC)CCNC(=O)c1ccc2c(Cl)c3c(nc2c1)CCCC3 [Example 4, 9-Chloro-5,6,7,8-tetrahydro-acridine-3-carboxylic acid [2-(butyl-ethyl-amino)-ethyl]-amide]
> 200 µM | CN(C)CCNC(=O)c1ccc2c(Cl)c3c(nc2c1)CCCC3 [Example 11, 9-Chloro-5,6,7,8-tetrahydro-acridine-3-carboxylic acid (2-dimethylamino-ethyl)-amide]
> 200 µM | CN(CCCNC(=O)c1ccc2c(Cl)c3c(nc2c1)CCCC3)Cc1ccccc1 [Example 14, 9-Chloro-5,6,7,8-tetrahydro-acridine-3-carboxylic acid [3-(benzyl-methyl-amino)-propyl]-amide]
> 200 µM | CCCN(CCC)CCNC(=O)c1ccc2c(Cl)c3c(nc2c1)CCCC3 [Example 3, 9-Chloro-5,6,7,8-tetrahydro-acridine-3-carboxylic acid (2-dipropylamino-ethyl)-amide]
